Measurements reported in patent publication US20220348615A1, “PRODUCTION OF BACTERIOCINS” (priority 2021, published 2022).
“And” between values parts separate entries of the source, which are not always exact repeats. Equal values may be shown once.

How the values were obtained:
[1] = tested on: C. glutamicum CR099; assay: Resistance of C. glutamicum CR099 to antimicrobial peptides, endpoint growth in 96-well microtiter plates; assay type: cell-based, Corynebacterium glutamicum
Method: Values are mean±standard deviation of n=4-7 independent experiments. (B) Growth of C. glutamicum CR099 in standard batch culture in 2xTY medium with 2% Glc in the presence (+PA-1) or absence (−PA-1) of 2.0 μg/mL pediocin. Values are mean±standard deviation of n=4 independent experiments. Growth rates were calculated during exponential growth phase. (C) Growth inhibition of L. monocytogenes EGDe::pIMK2 by supernatants of C. glutamicum CR099 in 2xTY medium with 2% Glc plus 2 μg/mL pure pediocin (+CR099). Supernatants were collected during the experiment shown in (B) at the indicated time-points. As controls, pediocin was incubated under the same conditions in sterile medium (−CR099). Values are OD600 of the indicator strain L. monocytogenes EGDe in a growth assay at the indicated dilutions of the samples and are mean±standard deviation of n=3 independent experiments. […]
The receptors for bacteriocins of the pediocin family on target organisms are the IIC and IID subunits of a sub-family of mannose-specific phosphotransferase systems (PTS^Man; PMID: 19477899). […] To corroborate this assumption, the resistance of C. glutamicum CR099 against different antimicrobial peptides was determined using an endpoint measurement of growth in 96-well microtiter plates (FIG. 2A).

[2] = tested on: L. lactis NZ9000/pNZ-Pnis-mCherry^Lla; assay: Nisin sensor strain mCherry fluorescence assay; assay type: cell-based, Lactococcus lactis; conditions: 96-well microtiter plate assay
Method: (B) A photo of the bacterial pellet taken after growth in GM17 medium containing 10 ng/ml nisin.
Black lines indicate absorbance at 214 nm in milli arbitrary units (mAU) and grey lines % of solution B in the elation buffer. Broken lines indicate the boundaries of the peak fractions collected for further analysis. (B) L. lactis NZ9000/pNZ-Pnis-mCherry^Lla was used to assay presence of nisin in different samples during purification of ammonium sulphate-precipitated supernatants of C. glutamicum CR099/pXMJ-nisZBTC^opt (SN: plain culture supernatant; precip: ammonium sulphate precipitated supernatant proteins; IEX: peak fraction of ion exchange chromatography; RP peak fraction of reverse phase chromatography. pos: 10 ng/ml nisin; +/−: activation by trypsin).
The sensitivity of the spot-on-lawn assay using C. glutamicum CR099 as an indicator strain is very low. […] The strain L. lactis NZ9000/pNZ-Pnis-mCherry^Lla contains the NisRK two-component system and harbours a pNZ-derives plasmid for expression the red-fluorescent protein mCherry from the Pnis promoter (FIG. 11A), which is activated by NisR in a strictly nisin-dependent manner. In this construct, the coding sequence of the mCherry protein is optimized for codon usage of L. lactis. The respective sensor strain results in reddish coloured bacteria after o/N growth in the presence of 10 ng mL^−1 (FIG. 11B). […]

[3] = tested on: L. monocytogenes EGDe::pIMK2; assay: Microtiter plate growth inhibition assay, L. monocytogenes indicator; assay type: cell-based, Listeria monocytogenes; conditions: serial 2-fold dilutions of pediocin standard
From the text: (§1) (B) Growth inhibition of L. monocytogenes EGDe::pIMK2 by supernatants of P. acidilactici 347 (Paci) collected in early stationary growth phase at the indicated dilution. Values are mean±standard deviation of at least n=3 independent experiments per condition. Dilution series sterile H2O (A) or MRS medium (B) were used as negative controls. Hatched bars indicate growth of the indicator strain without addition of diluted supernatant or pediocin, i.e. maximum growth. The bottom and top lines indicate OD600 of the positive (i.e. complete inhibition of growth) or negative (i.e. in the absence of an antimicrobial peptide), respectively. The broken middle line represents growth inhibition of 50%, i.e. the threshold to calculate bacteriocin units.
Pediocin PA-1 is a bacteriocin with potent antimicrobial activity against a range of Gram-positive microorganisms including important human pathogens such as Listeria monocytogenes. As a first step towards recombinant production of pediocin PA-1, a growth-dependent assay was established using L. monocytogenes EGDe::pIMK2 or L. innocua LMG2785::pIMK2 as indicator strains, and commercially available, purified pediocin (FIG. 1A). […]
(§2) To validate the assay, anti-microbial activity in supernatants of P. acidilactici 347, a natural producer of pediocin was measured following growth in MRS medium to early stationary growth phase (FIG. 1B). […]

[4] = tested on: L. innocua LMG2785::pIMK2; assay: Microtiter plate growth inhibition assay, L. innocua indicator; assay type: cell-based, Listeria innocua; conditions: serial 2-fold dilutions of pediocin standard
From the text: as §1
2h after inoculation Glc (2% w/v) and IPTG (0.1 mM) were added to induce production of pediocin (B) Growth inhibition of L. innocua LMG2785::pIMK2 by different dilutions of supernatants of C. glutamicum CR099/pEKEx2-pedACD (pedACD) collected at the indicated timepoints during the growth experiment shown in (A). All values are mean±standard deviation of n=3 independent experiments. […]
as §2

[5] = tested on: C. glutamicum CR099; assay: Growth of C. glutamicum CR099 in standard batch culture with pediocin; assay type: cell-based, Corynebacterium glutamicum; conditions: 2 μg mL^−1 pediocin, baffled Erlenmeyer flask, 2xTY with 2% Glc
Method: (§3) Values are mean±standard deviation of n=4-7 independent experiments. (B) Growth of C. glutamicum CR099 in standard batch culture in 2xTY medium with 2% Glc in the presence (+PA-1) or absence (−PA-1) of 2.0 μg/mL pediocin. Values are mean±standard deviation of n=4 independent experiments. Growth rates were calculated during exponential growth phase. (C) Growth inhibition of L. monocytogenes EGDe::pIMK2 by supernatants of C. glutamicum CR099 in 2xTY medium with 2% Glc plus 2 μg/mL pure pediocin (+CR099). Supernatants were collected during the experiment shown in (B) at the indicated time-points. As controls, pediocin was incubated under the same conditions in sterile medium (−CR099). Values are OD600 of the indicator strain L. monocytogenes EGDe in a growth assay at the indicated dilutions of the samples and are mean±standard deviation of n=3 independent experiments. In all graphs, the bottom and top lines indicate OD600 of the positive (i.e. complete inhibition of growth) or negative (i.e. in the absence of an antimicrobial peptide), respectively. The broken middle lines represent growth inhibition of 50%, i.e. the threshold to calculate bacteriocin units.
By contrast, C. glutamicum CR099 was able to grow in the presence of at least 12.5 μg mL^−1 pediocin PA-1.

[6] = tested on: L. monocytogenes EGDe::pIMK2; assay: Pediocin activity remaining in culture supernatant during C. glutamicum CR099 cultivation; assay type: cell-based, Listeria monocytogenes
Method: as §3
Additionally, activity of pediocin was measured in the culture supernatant at select timepoints during the cultivation. […] The observed reduction in activity was therefore considered to be related to adsorption of the positively charged pediocin to the negative surface of bacteria and, at later timepoints, to oxidative inactivation.

Substance	concentration above which growth of C. glutamicum CR099 is inhibited ([1]; preliminary experiments) [ng/mL]	limit of detection of the sensor strain for active nisin [2]	minimal concentration to completely inhibit growth of the indicator strain [3] [ng/mL]	minimal concentration to completely inhibit growth of the indicator strain [4] [ng/mL]	concentration in the presence of which C. glutamicum CR099 was able to grow ([1]; 96-well microtiter plates, endpoint growth)	effect on final optical density and growth rate [5]	pediocin activity in culture supernatant, initial ([6]; 2 μg/mL pediocin in growing C. glutamicum CR099 culture, start) [BU mL^−1]	pediocin activity after 24 hours in control incubation ([6]; 2xTY without bacteria, 24 hours)	pediocin activity in culture supernatant after slight initial reduction ([6]; growing C. glutamicum CR099 culture, stable for several hours) [BU mL^−1]	pediocin activity in culture supernatant after 24 hours ([6]; in the presence of C. glutamicum CR099, 24 hours) [BU mL^−1]
nisin	> 100	0.2 to 0.5 ng/mL and 0.25 to 0.5 ng/mL	–	–	–	–	–	–	–	–
pediocin PA-1 (KYYGNGVTCGKHSCSVDWGKATTCIINNGAMAWATGGHQGNHKC; listed as Pediococcus acidilactici) [commercially available, purified Class IIA bacteriocin]	–	–	39	39	at least 12.5 μg mL^−1	did not affect final optical density and growth rate	2560	the same reduction was observed	1280	160
